Structures are written as SMILES.

The assay deals with polymerase. The format is biochemical.

From the text: The incorporation score is a direct reflection of the incorporation half time; +++ refers to 4 to 14 seconds, ++ refers to 15 to 25 seconds, and + refers to greater than 25 seconds. The next base incorporation score reflects the incorporation half time for the next base, C refers to 20 to 100 seconds, B refers to 101 to 200 seconds, and A refers to greater than 200 seconds.

`O=C(O)CCCC[C@@H]1SC[C@@H]2NC(=O)N[C@@H]21` [biotin]: the incorporation score entry (nucleobase not stated) is reported as “+ (+ refers to greater than 25 seconds)”. The same molecule came in with an incorporation halftime (same experimental conditions for biotin and rhodamine dye) of 28 s.
